For orientation: IC50 means the concentration needed to halve the response being measured.

We go through 26 molecules from US20250236608A1, “EGFR INHIBITORS” (Blueprint Medicines Corporation, priority 2022, published 2025).

In test [1] the target is pEGFR (Tyr1068) in PC-9 cells (Ex19Del) (Homo sapiens (Human), UniProt P00533, DEL746-750). The test is described as follows: PC-9 pEGFR AlphaLISA assay. The conditions noted are these: 4 hours incubation, p-EGFR (Tyr1068) AlphaLISA, read-out: Ext pEGFR_PC-9 Ex19Del IC50. The class given is cell-based. A digest of the protocol: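 First, cells settled overnight in 10% FBS medium. Second, a 10-point, 4-fold series of test agents was applied for 4 h at 37° C. Third, lysates were probed with AlphaLISA acceptor and donor beads, incubated overnight in the dark. Last, IC50 was taken from the dose-response.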

For test [2], the target named is EGFR (d746-750) (Homo sapiens (Human), UniProt P00533, DEL746-750). The test is described as follows: Biochemical EGFR inhibition assay, EGFR (d746-750). The conditions noted are these: Caliper mobility shift; 1.0 mM ATP or ATP Km; read-out: Enz EGFR_Exon19-del746-750 IC50.
The target of test [3] is EGFR L858R (Homo sapiens (Human), UniProt P00533, L858R). The test is described as follows: Biochemical EGFR inhibition assay, EGFR L858R. As to conditions: Caliper mobility shift; 1.0 mM ATP or ATP Km; read-out: Enz EGFR_L858R IC50.
Sequence of EGFR L858R (P00533 25-1210 L858R): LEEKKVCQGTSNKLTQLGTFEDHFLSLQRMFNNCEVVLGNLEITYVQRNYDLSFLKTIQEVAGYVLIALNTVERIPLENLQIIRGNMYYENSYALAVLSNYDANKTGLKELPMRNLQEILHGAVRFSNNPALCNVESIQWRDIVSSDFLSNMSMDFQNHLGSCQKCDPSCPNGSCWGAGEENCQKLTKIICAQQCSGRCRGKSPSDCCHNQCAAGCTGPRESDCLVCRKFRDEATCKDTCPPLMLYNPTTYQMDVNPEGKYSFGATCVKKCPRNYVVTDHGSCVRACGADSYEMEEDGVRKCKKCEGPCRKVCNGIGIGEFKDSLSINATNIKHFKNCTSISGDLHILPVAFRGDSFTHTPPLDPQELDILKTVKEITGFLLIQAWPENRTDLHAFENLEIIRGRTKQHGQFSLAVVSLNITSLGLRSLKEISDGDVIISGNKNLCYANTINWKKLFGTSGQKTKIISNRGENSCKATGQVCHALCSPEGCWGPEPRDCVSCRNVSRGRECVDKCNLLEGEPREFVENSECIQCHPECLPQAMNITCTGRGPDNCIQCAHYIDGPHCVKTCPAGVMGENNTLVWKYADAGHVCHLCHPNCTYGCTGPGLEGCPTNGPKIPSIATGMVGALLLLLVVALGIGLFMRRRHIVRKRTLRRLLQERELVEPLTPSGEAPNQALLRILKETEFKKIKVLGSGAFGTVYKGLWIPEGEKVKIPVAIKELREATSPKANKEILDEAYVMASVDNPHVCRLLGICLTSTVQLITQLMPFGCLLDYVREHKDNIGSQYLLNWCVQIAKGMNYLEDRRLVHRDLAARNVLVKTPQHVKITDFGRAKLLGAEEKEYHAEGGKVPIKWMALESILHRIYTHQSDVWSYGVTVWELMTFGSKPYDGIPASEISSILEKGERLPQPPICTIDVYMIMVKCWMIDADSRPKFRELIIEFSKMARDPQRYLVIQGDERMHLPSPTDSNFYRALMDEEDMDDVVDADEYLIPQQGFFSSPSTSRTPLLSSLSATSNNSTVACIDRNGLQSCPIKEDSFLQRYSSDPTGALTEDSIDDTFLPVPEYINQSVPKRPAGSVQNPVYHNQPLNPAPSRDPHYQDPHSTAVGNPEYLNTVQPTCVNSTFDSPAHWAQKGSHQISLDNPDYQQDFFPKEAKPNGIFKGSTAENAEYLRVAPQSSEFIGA

Sequence of pEGFR (Tyr1068) in PC-9 cells (Ex19Del) (P00533 other isoform, or with tags, fused parts or gaps del 746-750): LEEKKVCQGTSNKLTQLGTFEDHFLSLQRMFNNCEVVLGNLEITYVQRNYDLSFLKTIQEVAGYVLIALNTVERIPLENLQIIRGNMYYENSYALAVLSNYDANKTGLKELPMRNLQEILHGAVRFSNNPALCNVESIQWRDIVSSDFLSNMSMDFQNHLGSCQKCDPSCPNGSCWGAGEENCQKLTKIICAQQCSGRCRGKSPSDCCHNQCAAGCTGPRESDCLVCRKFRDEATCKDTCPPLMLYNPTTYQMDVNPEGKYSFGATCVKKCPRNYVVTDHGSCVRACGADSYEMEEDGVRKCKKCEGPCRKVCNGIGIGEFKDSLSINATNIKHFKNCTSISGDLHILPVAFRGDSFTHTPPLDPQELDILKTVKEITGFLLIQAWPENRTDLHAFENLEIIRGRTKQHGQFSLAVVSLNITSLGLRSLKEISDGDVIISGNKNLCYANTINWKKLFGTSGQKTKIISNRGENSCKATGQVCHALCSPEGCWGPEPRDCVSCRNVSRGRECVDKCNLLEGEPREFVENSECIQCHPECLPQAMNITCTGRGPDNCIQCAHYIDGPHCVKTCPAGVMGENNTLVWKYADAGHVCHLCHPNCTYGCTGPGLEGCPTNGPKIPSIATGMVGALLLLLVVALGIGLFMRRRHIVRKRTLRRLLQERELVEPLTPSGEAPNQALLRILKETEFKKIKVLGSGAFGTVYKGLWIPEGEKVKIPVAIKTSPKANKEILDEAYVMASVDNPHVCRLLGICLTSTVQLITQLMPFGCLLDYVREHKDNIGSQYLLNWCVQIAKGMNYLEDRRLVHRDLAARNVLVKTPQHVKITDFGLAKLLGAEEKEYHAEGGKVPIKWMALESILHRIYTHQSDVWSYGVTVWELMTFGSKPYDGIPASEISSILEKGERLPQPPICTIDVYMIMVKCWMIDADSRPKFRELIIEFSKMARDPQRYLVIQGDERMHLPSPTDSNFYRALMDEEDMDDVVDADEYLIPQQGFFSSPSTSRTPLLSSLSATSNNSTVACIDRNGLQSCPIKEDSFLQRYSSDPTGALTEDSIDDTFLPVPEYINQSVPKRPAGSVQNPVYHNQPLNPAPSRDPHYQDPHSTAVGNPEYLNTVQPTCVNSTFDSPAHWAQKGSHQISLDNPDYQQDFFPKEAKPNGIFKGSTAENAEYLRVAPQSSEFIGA
Sequence of EGFR (d746-750) (P00533 other isoform, or with tags, fused parts or gaps del 1-694/del 746-750 limits assumed): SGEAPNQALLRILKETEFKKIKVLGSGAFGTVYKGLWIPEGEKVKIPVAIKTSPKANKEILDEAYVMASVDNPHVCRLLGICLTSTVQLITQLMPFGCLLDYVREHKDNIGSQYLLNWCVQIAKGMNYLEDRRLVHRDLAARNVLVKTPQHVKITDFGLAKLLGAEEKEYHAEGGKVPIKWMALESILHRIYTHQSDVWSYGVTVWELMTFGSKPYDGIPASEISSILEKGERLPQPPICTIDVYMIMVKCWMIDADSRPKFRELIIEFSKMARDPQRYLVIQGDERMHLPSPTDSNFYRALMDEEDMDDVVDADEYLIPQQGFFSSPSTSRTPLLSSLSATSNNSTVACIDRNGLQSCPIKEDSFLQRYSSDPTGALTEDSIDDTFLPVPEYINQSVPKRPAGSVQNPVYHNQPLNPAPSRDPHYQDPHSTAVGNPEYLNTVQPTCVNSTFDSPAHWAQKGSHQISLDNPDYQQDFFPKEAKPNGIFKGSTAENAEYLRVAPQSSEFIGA

As to `COc1cc2ncnc(-c3cn(C)nc3-c3ccccc3)c2cc1OC1CCOC1` (stereo not drawn) [Example 11, 7-methoxy-4-(1-methyl-3-phenyl-1H-pyrazol-4-yl)-6-((tetrahydrofuran-3-yl)oxy)quinazoline], the IC50 was 5.1 nM in test [1], 2.4 nM in test [2] and 2.9 nM in test [3].
Taken in the same sequence, the figures for `COc1cc2ncnc(-c3cn(C)nc3-c3ccccc3)c2cc1O[C@@H]1CCOC1` [Example 12, (R)-7-methoxy-4-(1-methyl-3-phenyl-1H-pyrazol-4-yl)-6-((tetrahydrofuran-3-yl)oxy)quinazoline] were 5.6 nM, 1.3 nM and 2.8 nM.
For `COc1cc2ncnc(-c3cn(C)nc3-c3ccccc3)c2cc1O[C@H]1CCOC1` [Example 13, (S)-7-methoxy-4-(1-methyl-3-phenyl-1H-pyrazol-4-yl)-6-((tetrahydrofuran-3-yl)oxy)quinazoline], the half-maximal inhibitory concentration (IC50) in test [1] was determined as 6.2 nM; in test [2], 1.9 nM; in test [3], 4 nM.
Consider `COc1cc2ncnc(-c3cn(C)nc3-c3ccccc3)c2cc1OC1CCOCC1` [Example 14, 7-methoxy-4-(1-methyl-3-phenyl-1H-pyrazol-4-yl)-6-((tetrahydro-2H-pyran-4-yl)oxy)quinazoline], for which the IC50 in test [1] turned out to be 5 nM; in test [2], 2 nM; in test [3], 3.6 nM.
`COc1cc2ncnc(-c3cn(CC(F)F)nc3-c3ccccc3)c2cc1OC` [Example 15, 4-(1-(2,2-difluoroethyl)-3-phenyl-1H-pyrazol-4-yl)-6,7-dimethoxyquinazoline]: the values for the IC50 in test [1], in test [2] and in test [3] were 1.5 nM, 0.8 nM and 1.5 nM, respectively.
In the case of `COCCOc1cc2ncnc(-c3cn(CC(F)F)nc3-c3ccccc3)c2cc1OC` [Example 16, 4-(1-(2,2-difluoroethyl)-3-phenyl-1H-pyrazol-4-yl)-6-methoxy-7-(2-methoxyethoxy)quinazoline], the IC50 in test [1] worked out at 2.1 nM; in test [2], 1.2 nM; in test [3] it was 1.8 nM.
Turning to `COc1cc2ncnc(-c3cn(C)nc3-c3ccccc3)c2cc1O[C@H]1CCOC[C@@H]1F` [Example 17, 6-(((3S,4S)-3-fluorotetrahydro-2H-pyran-4-yl)oxy)-7-methoxy-4-(1-methyl-3-phenyl-1H-pyrazol-4-yl)quinazoline], the figures for the IC50 in test [1], in test [2] and in test [3] were 2.4 nM, 1.1 nM and 1.8 nM, respectively.
Taken in the same sequence, the figures for `COc1cc2ncnc(-c3cn(C)nc3-c3ccccc3)c2cc1O[C@@H]1CCOC[C@H]1F` [Example 18, 6-(((3R,4R)-3-fluorotetrahydro-2H-pyran-4-yl)oxy)-7-methoxy-4-(1-methyl-3-phenyl-1H-pyrazol-4-yl)quinazoline] were 4.3 nM, 1.8 nM and 3.1 nM.
For the molecule `CCOc1cc2ncnc(-c3cn(CC(F)F)nc3-c3ccccc3)c2cc1OC` [Example 19, 4-(1-(2,2-difluoroethyl)-3-phenyl-1H-pyrazol-4-yl)-7-ethoxy-6-methoxyquinazoline], the IC50 in test [1] was 1.3 nM; in test [2] it was 0.8 nM; in test [3] it was 1.6 nM.
On to `COc1cc2ncnc(-c3cn(CC(F)F)nc3-c3ccccc3)c2nc1OC` [Example 20, 4-(1-(2,2-difluoroethyl)-3-phenyl-1H-pyrazol-4-yl)-6,7-dimethoxypyrido[3,2-d]pyrimidine], for which the IC50 was determined as 0.9 nM in test [1], 0.5 nM in test [2] and 1.2 nM in test [3].
In the case of `COc1cc2ncnc(-c3cn(C)nc3-c3ccccc3)c2cc1OC1COCCOC1` [Example 21, 6-((1,4-dioxepan-6-yl)oxy)-7-methoxy-4-(1-methyl-3-phenyl-1H-pyrazol-4-yl)quinazoline], the figures for the IC50 in test [1], in test [2] and in test [3] were 10.5 nM, 3 nM and 7.4 nM, respectively.
In the case of `COc1cc2ncnc(-c3cn(C)nc3-c3ccccc3)c2cc1O[C@@H](C)C1COC1` [Example 22, (S)-7-methoxy-4-(1-methyl-3-phenyl-1H-pyrazol-4-yl)-6-(1-(oxetan-3-yl)ethoxy)quinazoline], the figures for the IC50 in test [1], in test [2] and in test [3] were 4.8 nM, 1.2 nM and 1.7 nM, respectively.
Turning to `COc1cc2ncnc(-c3cn(CC(F)F)nc3-c3ccccc3)c2cc1OCCCN1CCOCC1` [Example 23, 4-(3-((4-(1-(2,2-difluoroethyl)-3-phenyl-1H-pyrazol-4-yl)-7-methoxyquinazolin-6-yl)oxy)propyl)morpholine], the IC50 came out at 0.8 nM in test [1], 0.9 nM in test [2] and 1.9 nM in test [3].
Taken in the same sequence, the figures for `CCOc1cc2ncnc(-c3cn(C)nc3-c3ccccc3)c2cc1OC1CCOCC1` [Example 24, 7-ethoxy-4-(1-methyl-3-phenyl-1H-pyrazol-4-yl)-6-((tetrahydro-2H-pyran-4-yl)oxy)quinazoline] were 2.6 nM, 0.8 nM and 1.3 nM.
For `CCOc1cc2ncnc(-c3cn(C)nc3-c3ccccc3)c2cc1OC` [Example 25, 7-ethoxy-6-methoxy-4-(1-methyl-3-phenyl-1H-pyrazol-4-yl)quinazoline], the IC50 in test [1] was determined as 2.1 nM; in test [2], 0.9 nM; in test [3] it was 1.4 nM.
Taken in the same sequence, the figures for `CC(C)Oc1cc2ncnc(-c3cn(C)nc3-c3ccccc3)c2cc1OC(C)C` [Example 26, 6,7-diisopropoxy-4-(1-methyl-3-phenyl-1H-pyrazol-4-yl)quinazoline] were 8 nM, 1.6 nM and 2.9 nM.
As to `COc1cc2ncnc(-c3cn(C)nc3-c3ccccc3)c2nc1OC(C)c1nnc(C)o1` (stereo not drawn) [Example 27, 2-(1-((7-methoxy-4-(1-methyl-3-phenyl-1H-pyrazol-4-yl)pyrido[3,2-d]pyrimidin-6-yl)oxy)ethyl)-5-methyl-1,3,4-oxadiazole], the IC50 in test [1] was 8.1 nM; in test [2], 3 nM; in test [3] it was 5.5 nM.
As to `COc1cc2ncnc(-c3cn(C)nc3-c3ccccc3)c2nc1OC(C)c1cocn1` (stereo not drawn) [Example 28, 4-(1-((7-methoxy-4-(1-methyl-3-phenyl-1H-pyrazol-4-yl)pyrido[3,2-d]pyrimidin-6-yl)oxy)ethyl)oxazole], the IC50 in test [1] was found to be 0.7 nM; in test [2], 0.9 nM; in test [3], 1.2 nM.
Consider `COc1cc2ncnc(-c3cn(C)nc3-c3ccccc3)c2nc1OC(C)c1nnnn1C` (stereo not drawn) [Example 29, 7-methoxy-6-(1-(1-methyl-1H-tetrazol-5-yl)ethoxy)-4-(1-methyl-3-phenyl-1H-pyrazol-4-yl)pyrido[3,2-d]pyrimidine], for which the IC50 in test [1] was found to be 11.3 nM; in test [2], 1.9 nM; in test [3], 4.8 nM.
Take `COc1cc2ncnc(-c3cn(C)nc3-c3ccccc3)c2nc1OC(C)c1cccnc1F` (stereo not drawn) [Example 30, 6-(1-(2-fluoropyridin-3-yl)ethoxy)-7-methoxy-4-(1-methyl-3-phenyl-1H-pyrazol-4-yl)pyrido[3,2-d]pyrimidine]: the results for the 50% inhibitory concentration (IC50) in test [1], in test [2] and in test [3] were 1.1 nM, 1 nM and 1.4 nM, respectively.
Taken in the same sequence, the figures for `COc1cc2ncnc(-c3cn(C)nc3-c3ccccc3)c2nc1OC(C)c1cscn1` (stereo not drawn) [Example 31, 4-(1-((7-methoxy-4-(1-methyl-3-phenyl-1H-pyrazol-4-yl)pyrido[3,2-d]pyrimidin-6-yl)oxy)ethyl)thiazole] were 1.1 nM, 0.8 nM and 1 nM.
For `COc1cc2ncnc(-c3cn(C)nc3-c3ccccc3)c2nc1O[C@H](C)c1nccs1` [Example 32, (R)-2-(1-((7-methoxy-4-(1-methyl-3-phenyl-1H-pyrazol-4-yl)pyrido[3,2-d]pyrimidin-6-yl)oxy)ethyl)thiazole], in that order: 1.2 nM, 0.8 nM and 1.1 nM.
Consider `COc1cc2ncnc(-c3cn(C)nc3-c3ccccc3)c2nc1O[C@@H](C)c1csc(C)n1` [Example 33, (S)-4-(1-((7-methoxy-4-(1-methyl-3-phenyl-1H-pyrazol-4-yl)pyrido[3,2-d]pyrimidin-6-yl)oxy)ethyl)-2-methylthiazole], for which the IC50 in test [1] stood at 0.8 nM; in test [2], 0.7 nM; in test [3], 1.1 nM.
With `COc1cc2ncnc(-c3cn(C)nc3-c3ccccc3)c2nc1OC(C)c1cn(C)nn1` (stereo not drawn) [Example 34, 7-methoxy-6-(1-(1-methyl-1H-1,2,3-triazol-4-yl)ethoxy)-4-(1-methyl-3-phenyl-1H-pyrazol-4-yl)pyrido[3,2-d]pyrimidine], the results for the half-inhibitory concentration (IC50) in test [1], in test [2] and in test [3] were 2.5 nM, 1.6 nM and 6.1 nM, respectively.
For the molecule `CCn1cc([C@@H](C)Oc2nc3c(-c4cn(C)nc4-c4ccccc4)ncnc3cc2OC)nn1` [Example 35, (R)-6-(1-(1-ethyl-1H-1,2,3-triazol-4-yl)ethoxy)-7-methoxy-4-(1-methyl-3-phenyl-1H-pyrazol-4-yl)pyrido[3,2-d]pyrimidine], the IC50 in test [1] stood at 2.7 nM; in test [2], 1.9 nM; in test [3] it was 2.3 nM.
On to `CCn1cc([C@H](C)Oc2nc3c(-c4cn(C)nc4-c4ccccc4)ncnc3cc2OC)nn1` [Example 36, (S)-6-(1-(1-ethyl-1H-1,2,3-triazol-4-yl)ethoxy)-7-methoxy-4-(1-methyl-3-phenyl-1H-pyrazol-4-yl)pyrido[3,2-d]pyrimidine], for which the IC50 in test [1] was found to be 14 nM; in test [2] it was 3.2 nM; in test [3], 9.7 nM.
